The assay has as its target T1, SIRT1 (Homo sapiens, UniProt Q96EB6).
T1 sequence (Q96EB6 1-747): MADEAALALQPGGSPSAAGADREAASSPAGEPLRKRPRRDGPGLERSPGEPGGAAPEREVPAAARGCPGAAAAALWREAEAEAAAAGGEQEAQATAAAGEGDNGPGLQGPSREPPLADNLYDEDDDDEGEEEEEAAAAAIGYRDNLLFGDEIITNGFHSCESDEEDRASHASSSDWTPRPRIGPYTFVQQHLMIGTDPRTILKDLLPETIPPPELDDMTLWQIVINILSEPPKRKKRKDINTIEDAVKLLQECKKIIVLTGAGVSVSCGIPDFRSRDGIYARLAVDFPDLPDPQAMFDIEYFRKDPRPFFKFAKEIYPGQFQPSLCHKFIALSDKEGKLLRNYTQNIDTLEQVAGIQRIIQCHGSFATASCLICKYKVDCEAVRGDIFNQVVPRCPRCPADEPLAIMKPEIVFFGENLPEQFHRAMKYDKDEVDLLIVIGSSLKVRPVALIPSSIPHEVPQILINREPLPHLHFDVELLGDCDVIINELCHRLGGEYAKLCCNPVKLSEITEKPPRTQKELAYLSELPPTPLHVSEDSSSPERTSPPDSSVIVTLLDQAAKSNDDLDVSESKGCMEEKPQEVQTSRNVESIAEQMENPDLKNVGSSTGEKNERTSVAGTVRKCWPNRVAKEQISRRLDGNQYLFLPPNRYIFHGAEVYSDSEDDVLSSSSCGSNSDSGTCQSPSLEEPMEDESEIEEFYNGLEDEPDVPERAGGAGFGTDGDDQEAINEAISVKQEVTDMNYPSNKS
Nature of the assay: Trp mass spectrometry assay (SIRT1 activation). In kind it is biochemical. As to conditions: Trp peptide substrate; for Tryp AVG EC1.5 (μM): concentration of test compound that results in 150% activation of SIRT1; for Emax: percent maximum fold activation of SIRT1, read-out: Tryp % Fold Act. The procedure, abridged: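 Activation is expressed as EC1.5, the concentration raising activity 50% above DMSO control, and as maximum percent of control. Mass-spec readout was OAADPR or deacetylated Trp peptide after a formic-acid-quenched 25-min, 25 °C reaction: 10 nM bacterially expressed His-SIRT1, 0.5 μM acetyl-p53-derived peptide, 120 μM NAD+, pH 7.5 HEPES with […].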

Take `Cc1cc(-c2ccc3c(n2)N(C(=O)Nc2cccc(-c4cnco4)c2)[C@H]2CCN3C2)ccn1` [Example 480]: the “Tryp AVG EC1.5 (μM)” value was “A (EC1.5<1 μM)” and the Emax is ≥ 150%.
On the same counts, the results for `Cc1cc(-c2ccc3c(n2)N(C(=O)Nc2nc(C)c(C)s2)[C@H]2CCN3C2)ccn1` [Example 481] are “A (EC1.5<1 μM)” and ≥ 150%.
For the compound `Cc1cc(-c2ccc3c(n2)N(C(=O)Nc2cnn(C)c2)[C@H]2CCN3C2)ccn1` [Example 482], the “Tryp AVG EC1.5 (μM)” value is on record as “B (EC1.5 1-25 μM)” and the Emax is ≥ 150%.
Consider `Cc1cc(-c2ccc3c(n2)N(C(=O)Nc2ccc4cn(C)cc4c2)[C@H]2CCN3C2)ccn1` [Example 483], for which the “Tryp AVG EC1.5 (μM)” value is listed as “A (EC1.5<1 μM)” and the Emax was ≥ 150%.
For `CN1CCCN(c2ccc3c(n2)N(C(=O)Nc2ccncn2)[C@H]2CCCN3C2)CC1` [Example 484], the “Tryp AVG EC1.5 (μM)” value was “C (EC1.5>25 μM)” and the Emax is < 150%.
Turning to `O=C(Nc1cccnc1)N1c2nc(-c3cccc(C(F)(F)F)c3)ccc2N2CCC1CC2` [Example 485], the “Tryp AVG EC1.5 (μM)” value was “A (EC1.5<1 μM)” and the Emax was ≥ 150%.
Turning to `Cc1nn(C)c(C)c1-c1ccc2c(n1)N(C(=O)Nc1cccnc1)[C@H]1CCN2C1` [Example 486], the “Tryp AVG EC1.5 (μM)” value is given as “C (EC1.5>25 μM)” and the Emax is ≥ 150%.
Take `CCCn1cc(-c2ccc3c(n2)N(C(=O)Nc2cccnc2)[C@H]2CCN3C2)cn1` [Example 487]: the “Tryp AVG EC1.5 (μM)” value is given as “B (EC1.5 1-25 μM)” and the Emax was ≥ 150%.
For the compound `Cc1nn(C)cc1-c1ccc2c(n1)N(C(=O)Nc1cccnc1)[C@H]1CCN2C1` [Example 488], the “Tryp AVG EC1.5 (μM)” value is “B (EC1.5 1-25 μM)” and the Emax is ≥ 150%.
On to `Cc1c(-c2ccc3c(n2)N(C(=O)Nc2cccnc2)[C@H]2CCN3C2)cnn1C` [Example 489], for which the “Tryp AVG EC1.5 (μM)” value was “B (EC1.5 1-25 μM)” and the Emax was ≥ 150%.
As to `Cc1[nH]ncc1-c1ccc2c(n1)N(C(=O)Nc1cccnc1)[C@H]1CCN2C1` [Example 490], the “Tryp AVG EC1.5 (μM)” value is listed as “B (EC1.5 1-25 μM)” and the Emax is ≥ 150%.
For `O=C(Nc1ccncn1)N1c2nc(N3CCCN(CC(F)(F)F)CC3)ccc2N2CCC[C@H]1C2` [Example 491], in that order: “A (EC1.5<1 μM)” and ≥ 150%.
For `O=C(Nc1cncc(F)c1)N1c2nc(-c3cccc(C(F)(F)F)c3)ccc2N2CCC1CC2` [Example 492], in that order: “A (EC1.5<1 μM)” and ≥ 150%.
For the compound `O=C(Nc1cccnc1)N1c2nc(-c3cc[nH]n3)ccc2N2CC[C@H]1C2` [Example 493], the “Tryp AVG EC1.5 (μM)” value is on record as “B (EC1.5 1-25 μM)” and the Emax is ≥ 150%.
For `CC(C)n1cc(-c2ccc3c(n2)N(C(=O)Nc2cccnc2)[C@H]2CCN3C2)cn1` [Example 494], in that order: “B (EC1.5 1-25 μM)” and ≥ 150%.
For `Cc1nc(C)c(-c2ccc3c(n2)N(C(=O)Nc2cccnc2)[C@H]2CCN3C2)s1` [Example 495], in that order: “B (EC1.5 1-25 μM)” and ≥ 150%.
As for `O=C(Nc1cccnc1)N1c2nc(-c3cccc(Cl)c3)ccc2N2CCC1CC2` [Example 496], the “Tryp AVG EC1.5 (μM)” value is given as “A (EC1.5<1 μM)” and the Emax was ≥ 150%.
In the case of `O=C(Nc1cccc(-c2cnco2)c1)N1c2nc(-c3cccc(Cl)c3)ccc2N2CCC1CC2` [Example 497], the “Tryp AVG EC1.5 (μM)” value was “A (EC1.5<1 μM)” and the Emax was ≥ 150%.
On the same counts, the results for `Cc1cc(-c2ccc3c(n2)N(C(=O)Nc2cccnc2)[C@H]2CCN3C2)ccn1` [Example 498] are “A (EC1.5<1 μM)” and ≥ 150%.
On the same counts, the results for `COc1cncc(NC(=O)N2c3nc(-c4ccnc(C)c4)ccc3N3CC[C@H]2C3)n1` [Example 499] are “A (EC1.5<1 μM)” and ≥ 150%.

(Values after patent US9765075B2, “Substituted bridged urea analogs as sirtuin modulators” (GLAXOSMITHKLINE LLC, priority 2013, dated 2017).)
